# Patent publication US12559750B2, “Methods and compositions for treatment of polycystic kidney disease” (Regulus Therapeutics Inc., priority 2021, dated 2026)
# System: C57Bl/6J male mice
# Assay: ICV maximum tolerated dose study, Study 1
# Type: in vivo, mouse
# Details: 7-day
# Experimental: Compounds (RG-NG-1017, RGLS4326, RG-NG-1001) were evaluated in a pilot maximum tolerated dose (MTD) study (discussed below). RG-NG-1017, RGLS4326 and RG-NG-1001 were initially evaluated at 4 dose-levels each. RG-NG-1017 was included for evaluation as a non-AMPA-R binding compound, as compared to RGLS4326 and RG-NG-1001, which bind AMPA-R. C57Bl/6J male mice (Jackson Laboratories), age 6-7 weeks, were used in this study. Mice were assigned randomly to treatment groups, and the study was blinded. Animals were allowed to acclimate for no less than 5 days and housed on a 12 hr light/dark cycle (lights on 7:00 AM). No more than 4 mice were house in each cage in a ventilated cage rack system. The diet consisted of standard rodent chow and water ad libitum.
# The following parameters were used for this study: • 1. Route(s) of administration: intracerebroventricular (ICV) dosing of RG-NG-1017, RG-NG-1001, RGLS4326 • 2. Dose Volume(s): 4 μL • 3. Formulation(s): vehicle, Ca^2+ and Mg^2+ free dPBS • 4. Dose Frequency: Once • 5. Study duration: 8 Days • 6. Number of Groups: 3 • 7. Number of animals per group: (2-4 each group) • 8. Total number of animals: […]
# For the ICV administration, mice were anesthetized and positioned for injections. The skin over the skull was incised, and a small hole was made in the skull above the target using a microdrill. The stereotactic coordinates were anteroposterior (AP), −0.4 mm; mediolateral (ML), +/−1.0-1.5 mm; dorsoventral (DV), −3.0 mm from the bregma for injection into both the right and left lateral cerebral ventricles (Hironaka et al, 2015). Animals were injected unilaterally with 4 μl into the right lateral cerebral ventricle. Compounds were injected over 1-2 min, and the needle was left in place for 0.5-1 min prior to withdrawal. The incision was closed with sutures, wound clips, or VetBond.
# Following ICV treatment (Day 0), animals were monitored for 7 days in which daily health checks, body weight, and mortality was recorded. On Day 7, brain and kidney were collected and fixed (10% formalin) and stored pending histology.
sequence,measurement,setting,value
"ASGSCMAFCFUFUMUSGS [RGLS4326, reference compound]",Mortality/total number of mice,single ICV 2.5 μg,0/3
same,Mortality/total number of mice,single ICV 5 μg,2/4
same,Mortality/total number of mice,single ICV 10 μg,3/4
same,Mortality/total number of mice,single ICV 25 μg,3/3
same,Mortality/total number of mice,single ICV 50 μg,3/3
same,Mortality/total number of mice,single ICV 100 μg,2/2
same,Mortality/total number of mice,single ICV 300 μg,2/2
same,Mortality/total number of mice,single ICV 600 μg,2/2
